One assay addresses T1, HSP90a protein (Homo sapiens, UniProt P07900).
T1 construct: purchased BPS Bioscience 50298
The experiment in a line: HSP90α-binding fluorescent polarization (FP) assay, BODIPY-labeled RNK04010 probe. As to conditions: FP competition with RNK04010 (BODIPY-labeled), 5 nM, 300 min at 25° C. The method in brief:
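Polarization signal was read after equilibration at 25° C, for 120 min with FITC-geldanamycin or 300 min with the BODIPY-tagged RNK04010 probe, each at 5 nM final. Compounds spanned 20 μM down to 5.2 nM in 2.5-fold dilutions against the HSP90a N-terminal domain.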

Assay [1] deals with MIA PaCa-2 human pancreatic carcinoma. The assay can be described thus: MIA PaCa-2 CCK-8 proliferation assay. As to conditions: Homo sapiens, MIA PaCa-2, 72 h, MIA PaCa-2 cells. The assay is classed as cell-based. The method in brief: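 Proliferation of mutant-KRAS(G12C) cells (2 copies in MIA PaCa-2, single copy in NCI-H358/NCI-H23) measured with CCK-8 after treatment across 20 μM–1.02 nM; inhibition expressed relative to vehicle-treated wells after subtracting no-cell background.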

Assay [2] addresses T2, KRAS(G12C) (Homo sapiens, UniProt P01116, G12C). The experiment in a line: KRAS(G12C)/SOS1 homogeneous time-resolved fluorescence (HTRF) assay. Details: purchased Cisbio 63ADK000CB16PEG. As to conditions: absence of GTP, 4° C. for 3 hr, read-out: KRAS (G12C) binding. In a few lines:
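HTRF kit measuring compound-induced block of KRAS(G12C)-SOS1 interaction without GTP. Compounds tested as 3-fold serial dilutions down to 1.02 nM, incubated with reaction components 3 h at 4 °C in sealed plates before fluorescence read.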
(In general: TR-FRET usually uses a lanthanide donor and a delayed reading to cut background.)

The target in assay [3] is T2, KRAS(G12C). The assay can be described thus: KRAS(G12C) Western blot protein degradation assay in LU65A cells. The assay is classed as cell-based. Details: LU65A human lung cancer cell line, which expresses KRAS(G12C); host or cells: LU65A. As to conditions: 6 hr. In a few lines: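 Cells treated with compound at various concentrations at 37 °C for 48 hr (MIA PaCa-2) or 6 hr (LU65A), then lysed in RIPA. Protein-normalized lysates immunoblotted for KRAS with β-actin, fluorescence quantified; DC50 is the concentration giving 50% of maximal KRAS degradation.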
On the technique in general: In western blotting, separated proteins are transferred to a membrane and probed.

Where only a bound is given, the exact number is not on record here.

Usually EC50 stands for the concentration that produces a half-maximal response. High values mean lower potency in that assay, low ones higher potency in that assay. As a reminder, the DC50 is the midpoint of the concentration-degradation curve. Lower therefore signals a more potent degrader.

T2 sequence (P01116 1-188 isoform P01116-2 G12C): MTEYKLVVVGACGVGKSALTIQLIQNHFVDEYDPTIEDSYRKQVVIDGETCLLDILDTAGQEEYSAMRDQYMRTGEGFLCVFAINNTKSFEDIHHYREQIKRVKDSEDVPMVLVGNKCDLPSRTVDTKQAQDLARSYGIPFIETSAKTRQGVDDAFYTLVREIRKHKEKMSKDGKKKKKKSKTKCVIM

With `C=CC(=O)N1CCN(c2nc(OC[C@@H]3C[C@H](C(=O)NCCc4ccc(CN5CCC(Cc6ccc(-n7c(C(=O)NCC(F)(F)F)nnc7-c7cc(C(C)C)c(O)cc7O)cc6)CC5)cc4)CN3C)nc3c2CCN(c2cccc4cccc(Cl)c24)C3)C[C@@H]1CC#N` [Compound 346, 4-{4-[(1-{[4-(2-{[(3S,5S)-5-({[7-(8-chloronaphthalen-1-yl)-4-[(3S)-3-(cyanomethyl)-4-(prop-2-enoyl)piperazin-1-yl]-5H,6H,8H-pyrido[3,4-d]pyrimidin-2-yl]oxy}methyl)-1-methylpyrrolidin-3-yl]formamido}ethyl)phenyl]methyl}piperidin-4-yl)methyl]phenyl}-5-(2,4-dihydroxy-5-isopropylphenyl)-N-(2,2,2-trifluoroethyl)-1,2,4-triazole-3-carboxamide], the IC50 on HSP90a protein and at KRAS(G12C) [2] was under 100 nM in each case. The EC50 in assay [1] was 100 to 1000 nM. At KRAS(G12C) [3], this compound returned a DC50 of 100 to 1000 nM.
Take `C=CC(=O)N1CCN(c2nc(OC[C@@H]3C[C@H](C(=O)N4CCN(Cc5ccc(-n6c(C(=O)NCC(F)(F)F)nnc6-c6cc(C)c(O)cc6O)cc5)CC4)CN3C)nc3c2CCN(c2cccc4cccc(Cl)c24)C3)C[C@@H]1CC#N` [Compound 347, 4-[4-({4-[(3S,5S)-5-({[7-(8-chloronaphthalen-1-yl)-4-[(3S)-3-(cyanomethyl)-4-(prop-2-enoyl)piperazin-1-yl]-5H,6H,8H-pyrido[3,4-d]pyrimidin-2-yl]oxy}methyl)-1-methylpyrrolidine-3-carbonyl]piperazin-1-yl}methyl)phenyl]-5-(2,4-dihydroxy-5-methylphenyl)-N-(2,2,2-trifluoroethyl)-1,2,4-triazole-3-carboxamide]: the IC50 at HSP90a protein and on KRAS(G12C) [2] was under 100 nM each time. In assay [1], this compound yielded a concentration giving a half-maximal response (EC50) of 100 to 1000 nM. Besides, the DC50 at KRAS(G12C) [3] is over 1000 nM.
Regarding `C=CC(=O)N1CCN(c2nc(OC[C@@H]3C[C@H](N4CCC(C(=O)N5CC6(CCN(Cc7ccc(-n8c(O)nnc8-c8cc(C(C)C)c(O)cc8O)cc7)CC6)C5)CC4)CN3C)nc3c2CCN(c2cccc4cccc(Cl)c24)C3)C[C@@H]1CC#N` [Compound 348, 2-[(2S)-4-[7-(8-chloronaphthalen-1-yl)-2-{[(2S,4S)-4-{4-[7-({4-[3-(2,4-dihydroxy-5-isopropylphenyl)-5-hydroxy-1,2,4-triazol-4-yl]phenyl}methyl)-2,7-diazaspiro [3.5]nonane-2-carbonyl]piperidin-1-yl}-1-methylpyrrolidin-2-yl]methoxy}-5H,6-H,8H-pyrido[3,4-d]pyrimidin-4-yl]-1-(prop-2-enoyl)piperazin-2-yl]acetonitrile], the IC50 at HSP90a protein and at KRAS(G12C) [2] was under 100 nM in each case. The EC50 in assay [1] fell in the range of 100 to 1000 nM. Further, the DC50 at KRAS(G12C) [3] lay within 100 to 1000 nM.
Turning to `C=CC(=O)N1CCN(c2nc(OC[C@@H]3C[C@H](C(=O)NCCOCCOc4ccc(-n5c(O)nnc5-c5cc(CC)c(O)cc5O)cc4)CN3C)nc3c2CCN(c2cccc4cccc(Cl)c24)C3)C[C@@H]1CC#N` [Compound 349, (3S,5S)-5-({[7-(8-chloronaphthalen-1-yl)-4-[(3S)-3-(cyanomethyl)-4-(prop-2-enoyl)piperazin-1-yl]-5H,6H,8H-pyrido[3,4-d]pyrimidin-2-yl]oxy}methyl)-N-[2-(2-{4-[3-(5-ethyl-2,4-dihydroxyphenyl)-5-hydroxy-1,2,4-triazol-4-yl]phenoxy}ethoxy)ethyl]-1-methylpyrrolidine-3-carboxamide], the IC50 on HSP90a protein and at KRAS(G12C) [2] was under 100 nM in each case. The compound further gave an EC50 in assay [1] of over 1000 nM. The compound further showed a DC50 on KRAS(G12C) [3] of 100 to 1000 nM.

Values taken from patent US20230391772A1, “METHODS AND COMPOSITIONS FOR TARGETED PROTEIN DEGRADATION” (Ranok Therapeutics (Hangzhou) Co. Ltd., priority 2020, published 2023).
